Key:
Assay in all cases: KINOMEscan competition binding
Details in all cases: compound 10.0 µM
NEK7 (human) = NEK7 (human) (UniProt Q8TDX7)
MYLK2 (human) = MYLK2 (human) (UniProt Q9H1R3)
NEK6 (human) = NEK6 (human) (UniProt Q9HC98)
AURKA (human) = AURKA (human) (UniProt O14965)
CLK3 (human) = CLK3 (human) (UniProt P49761)
MAPK4 (human) = MAPK4 (human) (UniProt P31152)
MAP3K9 (human) = MAP3K9 (human) (UniProt P80192)
ROS1 (human) = ROS1 (human) (UniProt P08922)
[1] = target: JAK2 JH1 catalytic (human) (UniProt O60674)
DAPK3 (human) = DAPK3 (human) (UniProt O43293)
RPS6KA6 KD1 (human) = RPS6KA6 KD1 (human) (UniProt Q9UK32)
MUSK (human) = MUSK (human) (UniProt O15146)
IRAK3 (human) = IRAK3 (human) (UniProt Q9Y616)
PRKACB (human) = PRKACB (human) (UniProt P22694)
MAPK1 (human) = MAPK1 (human) (UniProt P28482)
MAP4K5 (human) = MAP4K5 (human) (UniProt Q9Y4K4)
RIOK2 (human) = RIOK2 (human) (UniProt Q9BVS4)
TLK1 (human) = TLK1 (human) (UniProt Q9UKI8)
CDKL2 (human) = CDKL2 (human) (UniProt Q92772)
TSSK1B (human) = TSSK1B (human) (UniProt Q9BXA7)
CSNK1E (human) = CSNK1E (human) (UniProt P49674)
CaMK1 (human) = CaMK1 (human) (UniProt Q14012)
HIPK1 (human) = HIPK1 (human) (UniProt Q86Z02)
PIM1 (human) = PIM1 (human) (UniProt P11309)
CDC42BPB (human) = CDC42BPB (human) (UniProt Q9Y5S2)
BMPR2 (human) = BMPR2 (human) (UniProt Q13873)
EPHB1 (human) = EPHB1 (human) (UniProt P54762)
SRC (human) = SRC (human) (UniProt P12931)
PHKG2 (human) = PHKG2 (human) (UniProt P15735)
RIPK2 (human) = RIPK2 (human) (UniProt O43353)
EPHB3 (human) = EPHB3 (human) (UniProt P54753)
CDK7 (human) = CDK7 (human) (UniProt P50613)
PRKACA (human) = PRKACA (human) (UniProt P17612)
MARK1 (human) = MARK1 (human) (UniProt Q9P0L2)
[2] = target: JAK1 JH1 catalytic (human) (UniProt P23458)
EPHA3 (human) = EPHA3 (human) (UniProt P29320)
PIP4K2B (human) = PIP4K2B (human) (UniProt P78356)
EIF2AK2 (human) = EIF2AK2 (human) (UniProt P19525)
DDR2 (human) = DDR2 (human) (UniProt Q16832)
MAPK12 (human) = MAPK12 (human) (UniProt P53778)

Sequence of CLK3 (human) (P49761 whole entry, looked up): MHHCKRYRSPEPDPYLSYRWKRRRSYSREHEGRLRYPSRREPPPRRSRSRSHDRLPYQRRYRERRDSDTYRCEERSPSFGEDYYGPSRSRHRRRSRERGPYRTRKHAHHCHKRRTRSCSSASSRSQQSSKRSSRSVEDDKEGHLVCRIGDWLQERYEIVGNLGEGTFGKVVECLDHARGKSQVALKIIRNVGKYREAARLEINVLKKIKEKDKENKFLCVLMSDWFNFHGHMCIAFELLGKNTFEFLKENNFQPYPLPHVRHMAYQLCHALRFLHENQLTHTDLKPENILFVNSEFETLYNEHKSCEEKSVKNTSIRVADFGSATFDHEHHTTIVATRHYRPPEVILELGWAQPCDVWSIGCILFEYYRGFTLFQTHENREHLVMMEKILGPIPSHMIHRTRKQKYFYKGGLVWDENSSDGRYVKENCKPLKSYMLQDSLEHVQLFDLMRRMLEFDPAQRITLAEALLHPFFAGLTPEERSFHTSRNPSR
Sequence of EPHB1 (human) (P54762 whole entry, looked up): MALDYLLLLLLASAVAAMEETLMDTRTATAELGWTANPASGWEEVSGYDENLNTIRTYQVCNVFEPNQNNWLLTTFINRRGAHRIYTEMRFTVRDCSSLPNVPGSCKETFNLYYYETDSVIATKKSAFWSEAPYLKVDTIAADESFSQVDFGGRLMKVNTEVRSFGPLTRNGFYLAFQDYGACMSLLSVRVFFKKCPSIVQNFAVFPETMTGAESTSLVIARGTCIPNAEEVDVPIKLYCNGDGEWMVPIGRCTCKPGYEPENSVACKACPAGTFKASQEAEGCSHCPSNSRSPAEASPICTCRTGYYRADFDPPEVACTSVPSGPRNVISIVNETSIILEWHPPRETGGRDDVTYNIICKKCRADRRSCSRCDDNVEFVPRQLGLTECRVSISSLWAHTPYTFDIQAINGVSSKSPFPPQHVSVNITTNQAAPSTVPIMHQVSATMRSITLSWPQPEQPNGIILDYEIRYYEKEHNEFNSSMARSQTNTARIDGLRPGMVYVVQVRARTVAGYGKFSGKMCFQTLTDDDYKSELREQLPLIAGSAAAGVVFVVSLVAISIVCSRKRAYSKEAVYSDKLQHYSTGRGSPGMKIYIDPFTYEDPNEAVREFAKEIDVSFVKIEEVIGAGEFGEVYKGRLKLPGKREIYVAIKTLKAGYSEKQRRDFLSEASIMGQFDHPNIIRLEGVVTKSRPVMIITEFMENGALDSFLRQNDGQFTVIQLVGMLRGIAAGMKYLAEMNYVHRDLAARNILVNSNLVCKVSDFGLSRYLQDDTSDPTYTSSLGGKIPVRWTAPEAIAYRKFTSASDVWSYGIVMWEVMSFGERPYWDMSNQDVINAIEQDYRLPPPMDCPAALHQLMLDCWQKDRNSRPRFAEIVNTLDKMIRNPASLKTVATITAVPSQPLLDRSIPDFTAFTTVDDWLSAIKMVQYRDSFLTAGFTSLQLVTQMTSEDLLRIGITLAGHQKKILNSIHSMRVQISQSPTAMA
Sequence of DDR2 (human) (Q16832 whole entry, looked up): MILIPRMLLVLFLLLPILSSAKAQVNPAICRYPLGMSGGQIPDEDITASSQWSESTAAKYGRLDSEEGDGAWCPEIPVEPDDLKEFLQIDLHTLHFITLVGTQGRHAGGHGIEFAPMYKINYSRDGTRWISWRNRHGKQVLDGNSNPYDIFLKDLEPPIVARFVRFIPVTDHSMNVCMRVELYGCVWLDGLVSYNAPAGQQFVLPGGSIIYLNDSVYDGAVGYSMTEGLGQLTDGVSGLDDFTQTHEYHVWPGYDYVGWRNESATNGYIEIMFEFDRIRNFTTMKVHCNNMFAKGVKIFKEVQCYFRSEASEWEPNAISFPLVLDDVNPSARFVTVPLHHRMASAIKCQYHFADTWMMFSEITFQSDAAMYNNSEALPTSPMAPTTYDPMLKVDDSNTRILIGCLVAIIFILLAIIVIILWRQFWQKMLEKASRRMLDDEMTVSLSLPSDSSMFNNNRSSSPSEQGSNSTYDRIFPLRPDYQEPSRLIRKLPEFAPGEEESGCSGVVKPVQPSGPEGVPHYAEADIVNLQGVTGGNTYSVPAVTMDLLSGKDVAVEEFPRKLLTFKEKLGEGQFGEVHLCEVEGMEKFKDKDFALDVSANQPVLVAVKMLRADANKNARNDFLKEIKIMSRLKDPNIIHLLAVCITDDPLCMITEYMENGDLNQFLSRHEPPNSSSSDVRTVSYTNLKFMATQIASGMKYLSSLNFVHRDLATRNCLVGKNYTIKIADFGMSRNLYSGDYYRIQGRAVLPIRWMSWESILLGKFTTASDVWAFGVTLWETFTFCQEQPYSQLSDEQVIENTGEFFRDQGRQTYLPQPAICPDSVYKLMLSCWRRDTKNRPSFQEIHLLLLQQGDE
Sequence of NEK7 (human) (Q8TDX7 whole entry, looked up): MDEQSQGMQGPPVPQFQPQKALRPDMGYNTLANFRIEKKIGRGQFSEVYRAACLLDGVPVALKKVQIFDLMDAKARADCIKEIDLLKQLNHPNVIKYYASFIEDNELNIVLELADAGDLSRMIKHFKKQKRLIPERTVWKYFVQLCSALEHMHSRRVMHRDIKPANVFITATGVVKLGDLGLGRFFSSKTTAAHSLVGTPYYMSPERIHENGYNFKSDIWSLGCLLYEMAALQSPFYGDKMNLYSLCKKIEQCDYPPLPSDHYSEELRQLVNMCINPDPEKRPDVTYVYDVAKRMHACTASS
Sequence of IRAK3 (human) (Q9Y616 whole entry, looked up): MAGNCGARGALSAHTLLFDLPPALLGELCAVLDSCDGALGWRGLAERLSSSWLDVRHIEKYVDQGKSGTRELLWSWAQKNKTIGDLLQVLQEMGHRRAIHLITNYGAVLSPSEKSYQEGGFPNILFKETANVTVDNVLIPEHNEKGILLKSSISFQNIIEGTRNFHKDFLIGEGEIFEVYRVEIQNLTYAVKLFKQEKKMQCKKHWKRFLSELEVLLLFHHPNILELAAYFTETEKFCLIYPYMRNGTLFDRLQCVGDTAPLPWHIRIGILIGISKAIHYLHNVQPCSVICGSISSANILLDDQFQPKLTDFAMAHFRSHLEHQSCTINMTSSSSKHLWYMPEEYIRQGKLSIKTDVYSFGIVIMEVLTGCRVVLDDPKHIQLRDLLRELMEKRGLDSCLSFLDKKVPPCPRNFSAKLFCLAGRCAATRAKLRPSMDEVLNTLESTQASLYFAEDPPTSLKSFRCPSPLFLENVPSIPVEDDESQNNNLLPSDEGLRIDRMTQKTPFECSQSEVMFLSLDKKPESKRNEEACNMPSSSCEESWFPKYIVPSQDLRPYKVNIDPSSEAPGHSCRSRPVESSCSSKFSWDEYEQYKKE
Sequence of EIF2AK2 (human) (P19525 whole entry, looked up): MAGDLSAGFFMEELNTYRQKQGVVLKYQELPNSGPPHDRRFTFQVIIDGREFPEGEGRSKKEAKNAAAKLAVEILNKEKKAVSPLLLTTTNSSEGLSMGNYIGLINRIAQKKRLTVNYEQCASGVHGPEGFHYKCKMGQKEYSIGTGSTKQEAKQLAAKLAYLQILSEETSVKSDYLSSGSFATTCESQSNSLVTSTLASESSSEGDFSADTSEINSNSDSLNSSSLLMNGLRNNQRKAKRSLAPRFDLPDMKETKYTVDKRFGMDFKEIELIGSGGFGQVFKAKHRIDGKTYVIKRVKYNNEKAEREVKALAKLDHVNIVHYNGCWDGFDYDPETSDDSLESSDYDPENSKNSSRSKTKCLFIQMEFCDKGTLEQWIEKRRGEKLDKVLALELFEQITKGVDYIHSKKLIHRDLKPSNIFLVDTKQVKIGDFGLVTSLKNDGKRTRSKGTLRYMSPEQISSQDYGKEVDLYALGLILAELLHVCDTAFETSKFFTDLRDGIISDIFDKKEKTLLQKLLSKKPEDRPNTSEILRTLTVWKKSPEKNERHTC
Sequence of CDKL2 (human) (Q92772 whole entry, looked up): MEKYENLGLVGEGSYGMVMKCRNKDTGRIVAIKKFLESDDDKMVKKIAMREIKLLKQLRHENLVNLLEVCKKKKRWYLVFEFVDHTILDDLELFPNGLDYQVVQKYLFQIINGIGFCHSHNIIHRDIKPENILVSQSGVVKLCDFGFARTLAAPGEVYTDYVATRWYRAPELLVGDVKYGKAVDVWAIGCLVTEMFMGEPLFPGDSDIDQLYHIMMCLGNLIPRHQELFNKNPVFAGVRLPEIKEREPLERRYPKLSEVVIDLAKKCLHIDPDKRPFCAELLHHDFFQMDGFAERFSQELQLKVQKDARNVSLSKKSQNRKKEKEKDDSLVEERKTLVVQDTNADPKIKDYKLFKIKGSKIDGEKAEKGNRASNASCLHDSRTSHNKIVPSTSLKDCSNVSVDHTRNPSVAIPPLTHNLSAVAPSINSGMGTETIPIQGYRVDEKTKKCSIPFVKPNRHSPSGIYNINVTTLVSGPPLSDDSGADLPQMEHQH
Sequence of MAPK4 (human) (P31152 whole entry, looked up): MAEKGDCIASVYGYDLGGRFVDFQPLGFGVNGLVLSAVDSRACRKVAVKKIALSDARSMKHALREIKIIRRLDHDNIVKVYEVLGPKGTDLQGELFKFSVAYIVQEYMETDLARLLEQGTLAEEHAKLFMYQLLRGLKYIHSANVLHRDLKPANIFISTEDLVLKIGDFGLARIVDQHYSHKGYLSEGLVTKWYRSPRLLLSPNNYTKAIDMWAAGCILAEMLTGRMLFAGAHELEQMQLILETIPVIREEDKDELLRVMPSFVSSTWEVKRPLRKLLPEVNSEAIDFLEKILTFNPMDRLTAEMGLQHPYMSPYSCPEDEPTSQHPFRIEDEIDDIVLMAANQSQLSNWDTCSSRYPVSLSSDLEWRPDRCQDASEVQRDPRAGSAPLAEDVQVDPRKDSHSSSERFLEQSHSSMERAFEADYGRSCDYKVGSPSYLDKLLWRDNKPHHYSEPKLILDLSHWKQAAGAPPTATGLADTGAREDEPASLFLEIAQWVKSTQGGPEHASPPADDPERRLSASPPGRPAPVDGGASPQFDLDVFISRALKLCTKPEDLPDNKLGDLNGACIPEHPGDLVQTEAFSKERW

| SMILES | kinase still bound, per cent of control (NEK7 (human)) [%] | kinase still bound, per cent of control (MYLK2 (human)) [%] | kinase still bound, per cent of control (NEK6 (human)) [%] | kinase still bound, per cent of control (AURKA (human)) [%] | kinase still bound, per cent of control (CLK3 (human)) [%] | kinase still bound, per cent of control (MAPK4 (human)) [%] | kinase still bound, per cent of control (MAP3K9 (human)) [%] | kinase still bound, per cent of control (ROS1 (human)) [%] | kinase still bound, per cent of control [1] [%] | kinase still bound, per cent of control (DAPK3 (human)) [%] | kinase still bound, per cent of control (RPS6KA6 KD1 (human)) [%] | kinase still bound, per cent of control (MUSK (human)) [%] | kinase still bound, per cent of control (IRAK3 (human)) [%] | kinase still bound, per cent of control (PRKACB (human)) [%] | kinase still bound, per cent of control (MAPK1 (human)) [%] | kinase still bound, per cent of control (MAP4K5 (human)) [%] | kinase still bound, per cent of control (RIOK2 (human)) [%] | kinase still bound, per cent of control (TLK1 (human)) [%] | kinase still bound, per cent of control (CDKL2 (human)) [%] | kinase still bound, per cent of control (TSSK1B (human)) [%] | other results |
| --- | --- | --- | --- | --- | --- | --- | --- | --- | --- | --- | --- | --- | --- | --- | --- | --- | --- | --- | --- | --- | --- |
| CCC(=O)N1CCN(c2ccc(-n3c(=O)ccc4cnc5ccc(-c6cnc7ccccc7c6)cc5c43)cc2C(F)(F)F)CC1 | 90 | 40 | 99 | 100 | 43 | 80 | 84 | 71 | 65 | 82 | 66 | 100 | 27 | 100 | 100 | 8.1 | 24 | 100 | 58 | 100 | kinase still bound, per cent of control (CSNK1E (human)): 59%; kinase still bound, per cent of control (CaMK1 (human)): 50%; kinase still bound, per cent of control (HIPK1 (human)): 63%; kinase still bound, per cent of control (PIM1 (human)): 80%; kinase still bound, per cent of control (CDC42BPB (human)): 3.4%; kinase still bound, per cent of control (BMPR2 (human)): 59%; kinase still bound, per cent of control (EPHB1 (human)): 100%; kinase still bound, per cent of control (SRC (human)): 95%; kinase still bound, per cent of control (PHKG2 (human)): 100%; kinase still bound, per cent of control (RIPK2 (human)): 44%; kinase still bound, per cent of control (EPHB3 (human)): 85%; kinase still bound, per cent of control (CDK7 (human)): 57%; kinase still bound, per cent of control (PRKACA (human)): 79%; kinase still bound, per cent of control (MARK1 (human)): 100%; kinase still bound, per cent of control [2]: 82%; kinase still bound, per cent of control (EPHA3 (human)): 70%; kinase still bound, per cent of control (PIP4K2B (human)): 100%; kinase still bound, per cent of control (EIF2AK2 (human)): 88%; kinase still bound, per cent of control (DDR2 (human)): 100%; kinase still bound, per cent of control (MAPK12 (human)): 71% |
| C=CC(=O)Nc1cccc(Nc2nc(N[C@H]3CC[C@H](N(C)C)CC3)nc3c2ncn3C(C)C)c1 | 76 | 90 | 90 | 100 | 9 | 100 | 17 | 99 | 9.1 | 23 | 8.2 | 84 | 38 | 100 | 93 | 60 | 66 | 100 | 100 | 97 | kinase still bound, per cent of control (CSNK1E (human)): 0.1%; kinase still bound, per cent of control (CaMK1 (human)): 93%; kinase still bound, per cent of control (HIPK1 (human)): 25%; kinase still bound, per cent of control (PIM1 (human)): 92%; kinase still bound, per cent of control (CDC42BPB (human)): 76%; kinase still bound, per cent of control (BMPR2 (human)): 79%; kinase still bound, per cent of control (EPHB1 (human)): 84%; kinase still bound, per cent of control (SRC (human)): 4%; kinase still bound, per cent of control (PHKG2 (human)): 44%; kinase still bound, per cent of control (RIPK2 (human)): 100%; kinase still bound, per cent of control (EPHB3 (human)): 83%; kinase still bound, per cent of control (CDK7 (human)): 15%; kinase still bound, per cent of control (PRKACA (human)): 100%; kinase still bound, per cent of control (MARK1 (human)): 94%; kinase still bound, per cent of control [2]: 88%; kinase still bound, per cent of control (EPHA3 (human)): 54%; kinase still bound, per cent of control (PIP4K2B (human)): 54%; kinase still bound, per cent of control (EIF2AK2 (human)): 78%; kinase still bound, per cent of control (DDR2 (human)): 100%; kinase still bound, per cent of control (MAPK12 (human)): 96% |

— the kinase profiling compilation of Christmann-Franck et al. (2016)
